Laboratory results reported in patent publication US12630527B2, “Broad spectrum anti-cancer compounds” (The Regents of the University of California, priority 2019, dated 2026).

How the values were obtained:
MOLT-4 = assay: High Throughput Screen for growth inhibition, MOLT-4; type: cell-based; conditions: MOLT-4, Leukemia; 3 days; unit not given
Procedure: (§1) The High Throughput Screen method is described below. The endpoint readout of this assay is based upon quantitation of ATP as an indicator of viable cells.
(§2) Cell lines that have been preserved in liquid nitrogen are thawed and expanded in growth media (see Table 1-3). Once cells have reached expected doubling times, screening begins. Cells are seeded in growth media in black 384-well tissue culture treated plates at 500-1500 cells per well (as noted in Analyzer). Cells are equilibrated in assay plates via centrifugation and placed at 37° C. 5% CO2 for twenty-four hours before treatment. […] Assay plates are incubated with compound for 3 days and are then analysed using CellTiter-Glo 2.0. All data points are collected via automated processes and are subject to quality control and analysed using Horizon's software.
(§3) Growth Inhibition (GI) is utilized as a measure of cell growth. The GI percentages are calculated by applying the following test and equation: If T<V_0: 100*(1−(T−V_0)/V_0) If T≥V_0: 100*(1−(T−V_0)/(V−V_0)) where T is the signal measure for a test article, V is the untreated/vehicle-treated control measure, and Vo is the untreated/vehicle control measure at time zero (also colloquially referred as T0 plates). This formula is derived from the Growth Inhibition calculation used in the National Cancer Institute's NCI-60 high throughput screen. For the purposes of this report, all data analysis was performed in Growth Inhibition (except where noted).
(§4) A GI of 100% represents complete growth inhibition (cytostasis) and in this case cells treated with compound for 3 days would have the same endpoint reading as TO control cells. A GI of 200% represents complete death (cytotoxicity) of all cells in the culture well and in this case the T reading at 3 days will be lower than the TO control (values near or at zero).
(§5) Horizon also provides Inhibition as a measure of cell viability. Inhibition levels of 0% represent no inhibition of cell growth by treatment. Inhibition of 100% represents no doubling of cell numbers during the treatment window. Both cytostatic and cytotoxic treatments can yield an Inhibition percentage of 100%. Inhibition percentage is calculated as the following: I=1−T/U where T is the treated and U is the untreated/vehicle control.

LUDLU-1 = assay: High Throughput Screen for growth inhibition, LUDLU-1; type: cell-based; conditions: LUDLU-1, LUSC; 3 days; unit not given
Procedure: as §1, §2, §3, §4
(§6) Horizon also provides Inhibition as a measure of cell viability. Inhibition levels of 0% represent no inhibition of cell growth by treatment. […] Inhibition percentage is calculated as the following: I=1−T/U where T is the treated and U is the untreated/vehicle control.

BICR16 = assay: High Throughput Screen for growth inhibition, BICR16; type: cell-based; conditions: BICR16, Head and Neck; 3 days; unit not given
Procedure: as §1, §2, §3, §4, §6

AGS = assay: High Throughput Screen for growth inhibition, AGS; type: cell-based; conditions: Gastric, 3 days, unit not given
Procedure: as §1, §2, §3, §4, §5

HEC-50B = assay: High Throughput Screen for growth inhibition, HEC-50B; type: cell-based; conditions: Endometrial (uterine), 3 days, unit not given
Procedure: as §1, §2
(§7) Growth Inhibition (GI) is utilized as a measure of cell growth. The GI percentages are calculated by applying the following test and equation: If T<V_0: 100*(1−(T−V_0)/V_0) If T≥V_0: 100*(1−(T−V_0)/(V−V_0)) where T is the signal measure for a test article, V is the untreated/vehicle-treated control measure, and Vo is the untreated/vehicle control measure at time zero (also colloquially referred as T0 plates). This formula is derived from the Growth Inhibition calculation used in the National Cancer Institute's NCI-60 high throughput screen. […]

ALKBH5 = target: T1, ALKBH5 (Homo sapiens, UniProt Q6P6C2); assay: Fluorescence enzymatic inhibition assay (m6A7-Broccoli / DFHBI-1T), ALKBH5; type: biochemical; conditions: for inhibition of ALKBH5 at the highest concentration measured: highest concentration 40 μM; for IC50: Permeability Data and IC50 tables the 33rd table/the 34th table, unit inferred
T1 construct: SUMO (N); His10 (N); made in house; host or cells: E. coli BL21
T1 sequence (Q6P6C2 whole entry): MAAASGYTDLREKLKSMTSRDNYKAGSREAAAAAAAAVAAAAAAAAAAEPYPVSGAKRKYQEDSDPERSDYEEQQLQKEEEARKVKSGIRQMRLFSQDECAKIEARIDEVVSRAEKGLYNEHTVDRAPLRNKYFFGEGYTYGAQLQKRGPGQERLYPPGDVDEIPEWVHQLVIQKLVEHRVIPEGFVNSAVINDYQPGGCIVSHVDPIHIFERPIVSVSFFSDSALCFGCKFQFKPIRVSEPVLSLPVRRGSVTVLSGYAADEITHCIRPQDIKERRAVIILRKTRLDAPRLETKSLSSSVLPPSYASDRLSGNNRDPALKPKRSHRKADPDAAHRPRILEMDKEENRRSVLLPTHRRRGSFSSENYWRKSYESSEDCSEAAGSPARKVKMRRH
Procedure: (§8) E. coli BL21 competent cells (New England Biolabs) were transformed with pET28-SUMO-His10-FTO plasmid (a generous gift from the Jaffrey lab) by heat shock and spread on a LB Kanamycin agar plate, then incubated overnight at 37° C. 2-3 colonies were picked and transferred to 5 mL of LB media treated with kanamycin (0.5 mg mL^−1 final concentration), then grown overnight shaking at 37° C. The overnight culture was then transferred to 2 L of LB kanamycin media and incubated at 37° C. until OD 0.8. The culture was cooled at 4° C. for 20 mins and induced with 0.5 mM isopropyl β-D-1-thiogalactopyranoside (IPTG), then grown shaken at 16° C. Cell pellets were collected by centrifugation (5,000 g for 10 min at 4° C.) and the supernatant was discarded. The pellets were resuspended in B-PER Bacterial Protein Extraction Reagent (6 mL per gram) with DNase 1 (5 U per mL, RNase-free) and incubated at 4° C. for 1 hour. The suspension was centrifuged at 10,000 g for 20 min and the supernatant was transferred to a Talon Metal Affinity Resin column that had been pre-equilibrized with binding buffer (50 mM NaH2PO4 pH 7.2, 300 mM NaCl, 20 mM imidazole, 1 mM β-mercaptoethanol in RNase-free water). […] The eluant was combined and transferred to a Slyde-A-Lyzer Dialysis Cassette (20,000 MWCO, Thermo Scientific) and dialyzed overnight at 4° C. against dialysis buffer (50 mM Tris-HCl pH 7.4, 100 mM NaCl, 5 mM B-mercaptoethanol, 5% (v/v) glycerol in RNase-free water). […] ALKBH5 was expressed and purified from pET28-SUMO-His10-ALKBH5 plasmid by the same procedure described above.
(§9) Inhibitors were added in concentrations ranging from 0.008-40 μM; all inhibitors were dissolved in DMSO and added to a final concentration of 0.2% DMSO. […] After incubation at room temperature for 2 hours, the plates were left at 4° C. overnight (16 hours) to allow DFHBI-1T to bind to A7-Broccoli RNA. […] Sigmoidal dose-response curves were fitted in GraphPad Prism 6. All assays were performed in triplicate, with additional repetitions added as necessary.

[1] = system: TS576 glioblastoma stem cells; assay: Tumorosphere (neurosphere) formation assay, TS576; type: cell-based, human; conditions: TS576, 30 μM, 2 days, vs vehicle control
Procedure: To understand the effects of our FTO inhibitors on the self-renewal properties of GSCs, tumorospheres cultured from the patient-derived GSC line TS576 were treated with 30 μM of FTO-04, FTO-10, FTO-11, or FTO-12 (FIG. 29A-29B; cell line gifted from the Furnari lab).^45, 46 The GSCs were cultured in sphere-forming assays for 24 hours, then treated with either inhibitors or DMSO control for 2 days. The size of the tumorospheres was calculated using ImageJ.
Early passaged GSCs were used to understand the efficacy of ALK-04 on the self-renewal capacity of GSCs by tumorsphere-formation assay as described earlier^10, 11. In brief, GSCs were seeded at 4×10^4 cells in 24 well plate and cultured for 3 days followed by treatment with ALK-04 inhibitors at 20 μM daily for 3 days. After 3 days of treatment the images of the tumorospheres were imaged with phase contrast microscope and size was measured with Image J, to understand the effects of drugs on the self-renewal of GSCs on sphere formation. This process was also repeated for healthy neural stem cells (hNSCs) treated daily with 20 μM ALK-04 for three days to assess the therapeutic ratio.

SUM159PT = assay: High Throughput Screen for growth inhibition, SUM159PT; type: cell-based; conditions: Breast, 3 days, unit not given
Procedure: as §1, §2, §7

Kasumi-1 = assay: High Throughput Screen for growth inhibition, Kasumi-1; type: cell-based; conditions: Kasumi-1, Leukemia; 3 days; unit not given
Procedure: as §1, §2, §7

HCT-116 = assay: High Throughput Screen for growth inhibition, HCT-116; type: cell-based; conditions: HCT-116, Colon; 3 days; unit not given
Procedure: as §1, §2, §7

SW480 = assay: High Throughput Screen for growth inhibition, SW480; type: cell-based; conditions: SW480, Colon; 3 days; unit not given
Procedure: as §1, §2, §7

FTO = target: T2, FTO (Homo sapiens, UniProt Q9C0B1); assay: Fluorescence enzymatic inhibition assay (m6A7-Broccoli / DFHBI-1T), FTO; type: biochemical; conditions: for precipitation in assay buffer: dose response could not be determined
T2 construct: SUMO (N); His10 (N); made in house; host or cells: E. coli BL21
T2 sequence (Q9C0B1 whole entry): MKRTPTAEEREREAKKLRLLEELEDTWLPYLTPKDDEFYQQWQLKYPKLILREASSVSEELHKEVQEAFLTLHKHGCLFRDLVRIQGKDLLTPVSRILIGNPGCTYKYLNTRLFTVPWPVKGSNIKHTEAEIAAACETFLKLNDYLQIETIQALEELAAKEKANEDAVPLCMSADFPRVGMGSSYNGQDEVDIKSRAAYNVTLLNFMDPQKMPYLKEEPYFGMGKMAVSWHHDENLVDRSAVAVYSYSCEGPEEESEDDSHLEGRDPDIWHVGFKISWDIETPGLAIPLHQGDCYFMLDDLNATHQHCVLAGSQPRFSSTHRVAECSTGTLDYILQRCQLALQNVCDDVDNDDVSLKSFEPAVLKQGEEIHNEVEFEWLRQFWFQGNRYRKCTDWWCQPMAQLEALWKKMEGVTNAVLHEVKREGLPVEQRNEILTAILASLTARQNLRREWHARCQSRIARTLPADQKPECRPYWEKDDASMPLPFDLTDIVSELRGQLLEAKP
Procedure: In order to determine their efficacy as FTO inhibitors, the compounds were screened by a fluorescence enzymatic inhibition assay developed previously by the Jaffrey lab.^44 Briefly, a nonfluorescent methylated RNA substrate termed “m6A7-Broccoli” is incubated with FTO in the presence of 2-oxoglutarate (300 μM), (NH4)2Fe(SO4)2·6H2O (300 μM), and L-ascorbate (2 mM) for 2 hours at room temperature in reaction buffer (50 mM NaHEPES, pH 6).
as §8, §9

Question: c1ccc(-c2ccc(CNCC3(N4CCCC4)COC3)s2)cc1 [TR-FTO-38] was tested. Which “Growth Inhibition (GI) Values” (MOLT-4) did it give?
Answer: 24.366

Question: What about the “Growth Inhibition (GI) Values” (LUDLU-1) of the same molecule?
Answer: 31.952

Question: What about the “Growth Inhibition (GI) Values” (BICR16) of the same molecule?
Answer: 29.832

Question: What about the “Growth Inhibition (GI) Values” (AGS) of the same molecule?
Answer: 23.3

Question: And the “Growth Inhibition (GI) Values” (HEC-50B)?
Answer: 14.018

Question: FC1CCN(C2(CNCc3ccc(-c4ccccc4Cl)o3)COC2)C1 (centres unmarked) [TR-FTO-49 N] was tested. Which “Growth Inhibition (GI) Values” (MOLT-4) did it give?
Answer: 27.521

Question: COc1ccc2cc(-c3cnc(N)nc3)ccc2c1 [FTO-12, 5-(6-methoxynaphthalen-2-yl)pyrimidin-2-amine] was tested. Which “inhibition of ALKBH5 at the highest concentration measured” value (shortened to “inhibition of ALKBH5”) (ALKBH5) did it give?
Answer: no measurable inhibition

Question: What about the size of tumorospheres [1] of the same molecule?
Answer: significant reduction in size of the tumorospheres

Question: What does the source list for c1cncc(CNc2ccc(CNC3CC3)cn2)c1 [TR-YTH-05]?
Answer: Growth Inhibition (GI) Values (SUM159PT): 8.629; Growth Inhibition (GI) Values (AGS): 6.35

Question: Which “Growth Inhibition (GI) Values” (MOLT-4) does the source give for Clc1ccccc1-c1ccc(CNCC2(N3CCCC3)COC2)o1 [TR-FTO-43 N] here?
Answer: 24.595

Question: And the “Growth Inhibition (GI) Values” (Kasumi-1)?
Answer: 18.136

Question: What about the “Growth Inhibition (GI) Values” (LUDLU-1) of the same molecule?
Answer: 28.561

Question: And the “Growth Inhibition (GI) Values” (BICR16)?
Answer: 25.212

Question: What about the “Growth Inhibition (GI) Values” (AGS) of the same molecule?
Answer: 21.005

Question: And the “Growth Inhibition (GI) Values” (HCT-116)?
Answer: 31.451

Question: And the “Growth Inhibition (GI) Values” (SW480)?
Answer: 28.499

Question: For Oc1ccc2cc(-c3cncnc3)ccc2c1 [FTO-1, 6-(pyrimidin-5-yl)naphthalen-2-ol], which “inhibition of ALKBH5” value (ALKBH5) is on record?
Answer: no measurable inhibition

Question: For COC(=O)C1COC(c2ccccc2OC)N1 (centres unmarked) [ALK-15], which IC50 (ALKBH5) is on record?
Answer: 18.2 ± 2.3 µM

Question: Which IC50 (ALKBH5) does the source give for COC(=O)C1COC(c2ccc(OC)cc2)N1 (centres unmarked) [ALK-12] here?
Answer: 16.7 ± 2.6 µM

Question: How did the “precipitation in assay buffer” value (FTO) turn out when COCCNc1ncc(-c2ccc3cc(OC)ccc3c2)cn1 [FTO-15, N-(2-methoxyethyl)-5-(6-methoxynaphthalen-2-yl)pyrimidin-2-amine] was run?
Answer: significant precipitation in assay buffer

Question: With COc1ccc2cc(-c3cncnc3)ccc2c1 [FTO-5, 5-(6-methoxynaphthalen-2-yl)pyrimidine] as the molecule, how does the “inhibition of ALKBH5” value (ALKBH5) read?
Answer: no measurable inhibition

Question: How did the “precipitation in assay buffer” value (FTO) turn out when COc1ncc(-c2cccc(OCc3ccccc3)c2)cn1 [FTO-3, 5-(3-(benzyloxy)phenyl)-2-methoxypyrimidine] was run?
Answer: significant precipitation in assay buffer

Question: Which IC50 (ALKBH5) does the source give for COC(=O)C1COC(c2ccccc2F)N1 (centres unmarked) [ALK-14] here?
Answer: 29.8 ± 2.9 µM

Question: For COCCNc1ncc(-c2ccc(OCc3ccccc3)cc2)cn1 [FTO-18, 5-(4-(benzyloxy)phenyl)-N-(2-methoxyethyl)pyrimidin-2-amine], which “inhibition of ALKBH5” value (ALKBH5) is on record?
Answer: no measurable inhibition

Question: For Cc1ccc2cc(-c3cncnc3)ccc2n1 [FTO-7, 2-methyl-6-(pyrimidin-5-yl)quinoline], which “inhibition of ALKBH5” value (ALKBH5) is on record?
Answer: no measurable inhibition

Question: With COc1ncc(-c2ccc3nc(C)ccc3c2)cn1 [FTO-11, 6-(2-methoxypyrimidin-5-yl)-2-methylquinoline] as the molecule, how does the size of tumorospheres [1] read?
Answer: significant reduction in size of the tumorospheres

Question: With Nc1ncc(-c2ccc3cc(O)ccc3c2)cn1 [FTO-10, 6-(2-aminopyrimidin-5-yl)naphthalen-2-ol] as the molecule, how does the size of tumorospheres [1] read?
Answer: significant reduction in size of the tumorospheres

Question: With Nc1ncc(-c2cccc(Nc3ccccc3)c2)cn1 [FTO-9, 5-(3-(phenylamino)phenyl)pyrimidin-2-amine] as the molecule, how does the “preference (selectivity) between FTO and ALKBH5” value (FTO; ratio of potency towards FTO and ALKBH5) read?
Answer: almost ten times more potent towards ALKBH5
